Test results as given in article PMC4724246 (Molecular cell, 2015).

Key:
MCM ΔC = MCM ΔC (Saccharolobus islandicus, UniProt F0NF15); test: colorimetric phosphate release ATPase assay; format: biochemical; conditions: 1 mM ATP, 10 mM magnesium acetate, pH 7.9, 50 °C
SEC = target: the molecule itself; test: SEC

In the case of `Nc1ncnc2c1ncn2[C@@H]1O[C@H](COP(=O)(O)OP(=O)(O)OP(=O)(O)O)[C@@H](O)[C@H]1O` [ATP], the “colorimetric phosphate release ATPase assay” value (MCM ΔC) is reported as “loss of the wH domain results in a marked activation of the ATPase activity”.

B1: MCM, wild-type (S. islandicus) (natural protein, UniProt F0NF15 1-686, looked up)
chain: MEIPSKQIDYRDLFIEFLTTFKNTNNQNKYIERINELIAYRKKSLIVEFSDILSFNENLAYEIINNTKIVLPILEGALYDHILQLDPTYQRDIEKVHVRIVGIPRVIELRKIRSTDIDKLITIDGILVKVTPVKERIYKATYKHIHPDCMQEFEWPEDEEMPEILEMPTICPKCGKPGQFRLIPEKTKLIDWQKAVIQERPEEVPSGQLPRQLEIILEDDLVDSARPGDRVKVTGILEIKQDSPIKRGSRAVFDIYMKVSSIEVSQKVLDEVTISEEDEKKIKDLAKDPWIRDRIIASIAPSIYGHWELKEALALALFGGVPKVLEDTRIRGDIHILIIGDPGTAKSQMLQFISRVAPRAVYTTGKGSTAAGLTAAVVREKGTGEYYLEAGALVLADGGIAVIDEIDKMRDEDRVAIHEAMEQQTVSIAKAGIVAKLNARAAVIAAGNPKFGRYITERPVSDNINLPPTILSRFDLIFILKDQPGEQDRELANYILDVHSGKSTKNIIDIDTLRKYIAYARKYIIPKITSEAKNLITDFFVEMRKKSSETPDSPILITPRQLEALIRISEAYAKMALKTEVTREDAERAINIMRLFLESVGVDMESGKIDIDTIMTGKPKSAREKMMKILEIIDSLAVSSECAKVKDILKEAQQVGIEKSNIEKLLTDMRKSGIIYEAKPECYKKV
In the case of B1, the “stoichiometry N” value (SEC) is reported as 6.
